SMILES strings stand for the structures. Where two headings read alike, the source gives them in different places.

Experimental findings from patent US11384078B2, “5,6-fused-bicyclic compounds and compositions for the treatment of parasitic diseases” (NOVARTIS AG, priority 2017, dated 2022) are described below.

Holding throughout (assay type): cell-based
Experiment [1] relates to Trypanosoma cruzi amastigotes cultured in 3T3 fibroblast cells. Put plainly: Assay for growth inhibition of kinetoplastid parasite Trypanosoma cruzi (beta-galactosidase Tulahuen strain, CPRG readout). The conditions noted are these: Trypanosoma cruzi, Fibroblast, T. cruzi amastigotes in 3T3 fibroblast cells; read-out: Buckner infectious T. cruzi EC50. Summed up: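 3T3 fibroblasts (1,000 cells/well) plated overnight, treated with compound in DMSO, then infected with 10,000 Lac-Z-expressing Tulahuen trypomastigotes. After 6 days, 0.6 mM CPRG with 0.6% NP-40 added for 2 h at room temperature; absorbance gives relative intracellular amastigote numbers. Benznidazole and nifurtimox serve as positive controls.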

The subject of experiment [2] is Leishmania donovani axenic amastigote. Briefly: In vitro assay for growth inhibition of Leishmania donovani axenic amastigote (Cell TiterGlo luminescence). The conditions noted are these: Leishmania donovani, L. donovani axenic amastigotes in vitro; read-out: L. donovani amastigotes EC50. In short, it runs like this: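 Axenic L. donovani amastigotes (9600/well) grown at 37 °C, 5% CO2 in supplemented RPMI 1640, pH 5.5, with compound added from DMSO. After two days, viability read by CellTiter-Glo luminescence against DMSO and control-compound wells.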
For orientation: In ATP-based viability assays light output follows the ATP content of the culture.

In experiment [3] the test system is L. donovani HU3 strain in mouse peritoneal macrophages. Put plainly: Assay for inhibition of parasitemia of Leishmania donovani in mouse macrophages (SYBR Green nuclei count, high-content imaging). The conditions noted are these: Leishmania donovani, Peritoneal macrophage, read-out: L. donovani in Mouse Macrophages EC50. The source says:
Assay for Inhibition of Parasitemia of Leishmania donovani in Mouse Macrophages
The assay measures the increase in the parasite number in the assayed plate well using a DNA intercalating dye, SYBR Green I® dye (INVITROGEN) to stain Leishmania cell nuclei. L. donovani HU3 strain is propagated by infecting BALB/c mice through tail vein injection with 10^7 Leishmania parasites. Infected mice are allowed to develop infection during 9-11 weeks post-infection. During this time, the parasites accumulate in the infected mouse spleens to large numbers, and the infected mice serve as the source of parasites for the in vitro measurement of compound efficacies. To assay a compound for anti-leishmanial activity, peritoneal macrophages isolated from non-infected BALB/c mice are seeded into 384-well plates at density 2×10^4 macrophages per well in […] of medium (RPM11640, 10% fetal serum albumin, 10 mM HEPES, 1 mM sodium pyruvate, 1% Pen/Strep). Subsequently, the seeded plates are placed into an incubator set to maintain 37° C. temperature and atmosphere with 5% CO2.
The next day, Leishmania parasites are isolated from the spleens of mice infected for 9-11 weeks and 4×10^5 isolated parasites in […] of the above media are added to each plate well. Plates are then returned into incubators and infection is allowed to proceed for 24 hours. After the infection of macrophages is completed, […] of compounds of the invention in the above medium, which also contains 5% DMSO, are added to plate wells containing infected macrophages. At the same time control compounds (miltefosine and amphotericin B) and DMSO are added to plates to serve as the positive and negative controls, respectively. After the compound addition, the plates are returned into incubator and cells infected with parasites are cultured for 5 days. At the end of cultivation, […] of 8% paraformaldehyde is added to plate wells and incubated for 15 min at room temperature. Following the incubation, the paraformaldehyde from plate wells is aspirated, and […] of PBS containing 0.2% Triton X-100 is added to wells. After 15 min incubation, the solution is aspirated from wells again, and replaced with Sybr® Green Dye solution in PBS (1:125,000 dilution). Infected cells are imaged with Evotec Opera high-content microscope, and the number of parasites in well is determined by counting parasite nuclei visualized by staining with Sybr® Green dye.

Experiment [4] has as its system Trypanosoma brucei brucei (Lister 427) strain. Briefly: Assay for growth inhibition against Trypanosoma brucei brucei (Cell TiterGlo ATP luminescence). The conditions noted are these: T. brucei brucei (Lister 427), read-out: T. Brucei (HAT) EC50. In short, it runs like this: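 T. b. brucei Lister 427 grown in HMI-9 with 10% FBS and 10% serum plus, seeded at 10,000 parasites/mL with 10-point threefold compound dilutions in duplicate, 37 °C for 2 days. Viability read as ATP luminescence 30 min after Cell TiterGlo; IC50 versus untreated controls.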

Setting [5] is: L. donovani in mouse peritoneal macrophages.

Consider `CCC(C)(C)c1cnc2nn(-c3cc(NC(=O)c4oc(C)nc4C)ccc3F)cc2c1` [Compound 104, N-{4-fluoro-3-[5-(2-methylbutan-2-yl)-2H-pyrazolo[3,4-b]pyridin-2-yl]phenyl}-2,4-dimethyl-1,3-oxazole-5-carboxamide], for which the EC50 turned out to be 1200 nM in experiment [1], 3100 nM in experiment [2], 2100 nM in experiment [3] (setting [5]) and 4200 nM in experiment [4] (Trypanosoma brucei).

Turning to `O=C(Nc1ccc(F)c(-n2cc3cc(N4CC(F)(F)C4)cnc3n2)c1)N1CCCC1` [Compound 338, N-{3-[5-(3,3-difluoroazetidin-1-yl)-2H-pyrazolo[3,4-b]pyridin-2-yl]-4-fluorophenyl}pyrrolidine-1-carboxamide], the EC50 in experiment [1] worked out at 3 nM; in experiment [2], 5 nM; in experiment [3] (setting [5]), 2 nM; in experiment [4] (Trypanosoma brucei), 3 nM.

With `CC(C)(C)c1cnc2nn(-c3cc(NC(=O)N4CC(F)(F)C4)ccc3F)cc2c1` [Compound 33, N-(3-{5-tert-butyl-2H-pyrazolo[3,4-b]pyridin-2-yl}-4-fluorophenyl)-3,3-difluoroazetidine-1-carboxamide], the EC50 in experiment [1] is 720 nM; in experiment [2] it was 290 nM; in experiment [3] (setting [5]), 560 nM; in experiment [4] (Trypanosoma brucei), 280 nM.

As for `CC(C)Nc1cnc2nn(-c3cc(NC(=O)N4CC(F)C4)ccc3F)cc2c1` [Compound 200, 3-fluoro-N-(4-fluoro-3-{5-[(propan-2-yl)amino]-2H-pyrazolo[3,4-b]pyridin-2-yl}phenyl)azetidine-1-carboxamide], the EC50 came to 15 nM in experiment [1], 974 nM in experiment [2], 7 nM in experiment [3] (setting [5]) and 5 nM in experiment [4] (Trypanosoma brucei).

With `O=C(Nc1ccc(F)c(-n2cc3cc(Br)cnc3n2)c1)N1CC[C@@H](F)C1` [Compound 127, (R)—N-(3-(5-bromo-2H-pyrazolo[3,4-b]pyridin-2-yl)-4-fluorophenyl)-3-fluoropyrrolidine-1-carboxamide], the EC50 in experiment [1] was 6.8 nM; in experiment [2], 25 nM; in experiment [3] (setting [5]) it was 17 nM; in experiment [4] (Trypanosoma brucei), less than 23 nM.

With `O=C(Nc1ccc(F)c(-n2cc3cc(N4CC(F)(F)C4)cnc3n2)c1)N1CCC1` [Compound 290, N-{3-[5-(3,3-difluoroazetidin-1-yl)-2H-pyrazolo[3,4-b]pyridin-2-yl]-4-fluorophenyl)azetidine-1-carboxamide], the half-maximal effective concentration (EC50) in experiment [1] was 4 nM; in experiment [2] it was 7 nM; in experiment [3] (setting [5]), 4 nM; in experiment [4], 4 nM.

As for `O=C(Nc1ccc(F)c(-n2cc3cccnc3n2)c1)N1CC(F)C1` [Compound 311, 3-fluoro-N-(4-fluoro-3-(2H-pyrazolo[3,4-b]pyridin-2-yl)phenyl)azetidine-1-carboxamide], the EC50 in experiment [1] was determined as 31 nM; in experiment [2], 58 nM; in experiment [3] (setting [5]), 33 nM; in experiment [4] (Trypanosoma brucei), 27 nM.

In the case of `O=C(Nc1ccc(F)c(-n2cc3cc(N4CC5(CCOC5)C4)cnc3n2)c1)N1CC(F)C1` [Compound 202, 3-fluoro-N-[4-fluoro-3-(5-{6-oxa-2-azaspiro[3.4]octan-2-yl}-2H-pyrazolo[3,4-b]pyridin-2-yl)phenyl]azetidine-1-carboxamide], the EC50 in experiment [1] was 25 nM; in experiment [2] it was 463 nM; in experiment [3] (setting [5]) it was 10 nM; in experiment [4] (Trypanosoma brucei) it was 5 nM.

As for `O=C(Nc1ccc(F)c(-n2cc3cc(N4CCOCC4)cnc3n2)c1)N1CCC1` [Compound 137, N-{4-fluoro-3-[5-(morpholin-4-yl)-2H-pyrazolo[3,4-b]pyridin-2-yl]phenyl}azetidine-1-carboxamide], the EC50 in experiment [1] is 5.1 nM; in experiment [2], 8.8 nM; in experiment [3] (setting [5]), 6 nM; in experiment [4] (Trypanosoma brucei), less than 23 nM.

In the case of `Cc1nc(C)c(C(=O)Nc2ccc(F)c(-n3cc4cc(Br)cnc4n3)c2)o1` [Compound 128, N-(3-(5-bromo-2H-pyrazolo[3,4-b]pyridin-2-yl)-4-fluorophenyl)-2,4-dimethyloxazole-5-carboxamide], the EC50 in experiment [1] was found to be 140 nM; in experiment [2] it was 380 nM; in experiment [3] (setting [5]), 190 nM; in experiment [4] (Trypanosoma brucei) it was 180 nM.

With `CC(C)(C)Cc1cnc2nn(-c3cc(NC(=O)N4CCC4)ccc3F)cc2c1` [Compound 94, N-{3-[5-(2,2-dimethylpropyl)-2H-pyrazolo[3,4-b]pyridin-2-yl]-4-fluorophenyl}azetidine-1-carboxamide], the EC50 in experiment [1] was 1.8 nM; in experiment [2], 12 nM; in experiment [3] (setting [5]), 8.1 nM; in experiment [4] (Trypanosoma brucei) it was less than 23 nM.

With `O=C(Nc1ccc(F)c(-n2cc3cc(N4CC5(CC5)C4)cnc3n2)c1)N1CCCC1` [Compound 337, N-[3-(5-{5-azaspiro[2.3]hexan-5-yl}-2H-pyrazolo[3,4-b]pyridin-2-yl)-4-fluorophenyl]pyrrolidine-1-carboxamide], the EC50 in experiment [1] was found to be 4 nM; in experiment [3] (setting [5]), 13 nM; in experiment [4] (Trypanosoma brucei), 7 nM.

Consider `O=C(Nc1ccc(F)c(-n2cc3cc(-c4ccccc4)cnc3n2)c1)N1CC(F)(F)C1` [Compound 353, 3,3-difluoro-N-(4-fluoro-3-(5-phenyl-2H-pyrazolo[3,4-b]pyridin-2-yl)phenyl)azetidine-1-carboxamide], for which the EC50 came out at 5 nM in experiment [2], 4 nM in experiment [3] and 13 nM in experiment [4] (Trypanosoma brucei).

Turning to `CN(C)C(=O)Nc1ccc(F)c(-n2cc3cc(N(C)C)cnc3n2)c1` [Compound 143, 1-{3-[5-(dimethylamino)-2H-pyrazolo[3,4-b]pyridin-2-yl]-4-fluorophenyl}-3,3-dimethylurea], the figures for the EC50 in experiment [2], in experiment [3] (setting [5]) and in experiment [4] (Trypanosoma brucei) were 150 nM, 110 nM and less than 23 nM, respectively.

As to `[2H]C([2H])([2H])N(c1cnc2nn(-c3cc(NC(=O)N4CC(F)C4)ccc3F)cc2c1)C([2H])([2H])[2H]` [Compound 314, N-(3-[5-[bis(^2H3)methylamino]-2H-pyrazolo[3,4-b]pyridin-2-yl]-4-fluorophenyl)-3-fluoroazetidine-1-carboxamide], the EC50 in experiment [1] amounted to 5 nM; in experiment [2] it was 242 nM; in experiment [3] (setting [5]), 6 nM.

Take `O=C(Nc1ccc(F)c(-n2cc3cc(C4CC4)cnc3n2)c1)c1ccco1` [Compound 55, N-(3-{5-cyclopropyl-2H-pyrazolo[3,4-b]pyridin-2-yl}-4-fluorophenyl)furan-2-carboxamide]: the EC50 in experiment [1] stood at 6.3 nM; in experiment [2], 57 nM; in experiment [3] (setting [5]), 35 nM.

With `Cc1nc(C)c(C(=O)Nc2ccc(F)c(-n3cc4cc(-c5ccccc5)cnc4n3)c2)o1` [Compound 352, N-(4-fluoro-3-(5-phenyl-2H-pyrazolo[3,4-b]pyridin-2-yl)phenyl)-2,4-dimethyloxazole-5-carboxamide], the results for the EC50 in experiment [2], in experiment [3] (setting [5]) and in experiment [4] (Trypanosoma brucei) were 17 nM, 31 nM and 39 nM, respectively.

As for `O=C(Nc1ccc(F)c(-n2cc3cc(C4CCCCC4)cnc3n2)c1)N1CC[C@@H](F)C1` [Compound 44, (3R)-N-(3-{5-cyclohexyl-2H-pyrazolo[3,4-b]pyridin-2-yl}-4-fluorophenyl)-3-fluoropyrrolidine-1-carboxamide], the figures for the EC50 in experiment [1], in experiment [2] and in experiment [3] (setting [5]) were 22 nM, 29 nM and 32 nM, respectively.

As for `O=C(Nc1ccc(F)c(-n2cc3cc(CC(F)(F)F)cnc3n2)c1)c1ccco1` [Compound 176, N-{4-fluoro-3-[5-(2,2,2-trifluoroethyl)-2H-pyrazolo[3,4-b]pyridin-2-yl]phenyl}furan-2-carboxamide], the EC50 in experiment [1] was found to be 9.5 nM; in experiment [2], 71 nM; in experiment [3] (setting [5]) it was 69 nM.

The EC50 is the concentration at which the effect is half-maximal.
